Results taken from patent US20250381183A1, “TARGETING S100A9-ALDH1A1-RETINOIC ACID SIGNALING TO SUPPRESS BRAIN RELAPSE IN EGFR-MUTANT LUNG CANCER” (The Trustees of Columbia University in the City of New York, priority 2022, published 2025).

Key:
RAR target gene STRA6 [1] = assay: STRA6 expression by qRT-PCR in PC9-Tr-BrM cells; format: cell-based, human; conditions: two days; for inhibition of retinol-induced STRA6 expression: 5 μM retinol and 5 μM antagonist
Protocol: (§1) FIG. 13A-FIG. 13B: STRA6 expression was determined by qRT-PCR analysis of Tr-BrM cells from the PC9 model (13(a)) and H1650 model (13(b)), which were treated with either DMSO, retinol or retinol plus different retinoic acid receptor antagonists. Cells were cultured for two days in serum-free RPMI medium with DMSO alone, with 5 μM retinol alone, or medium with both 5 μM retinol and 5 μM antagonists (either the RAR-α antagonist BMS-195614, the RAR-γ antagonist MM-11253, or the pan-RAR antagonist AGN-194310). After two days of culturing, cells were washed and collected for RNA analysis. GAPDH was measured as an internal control. […] For the PC9 model in 13(a), n=8 for vehicle; n=5 for retinol; n=3 for retinol plus the RAR-alpha inhibitor (“RAR-α-inh.”); n=3 for retinol plus the RAR-gamma inhibitor (“RAR-γ-inh.”); n=4 for retinol plus the pan-RAR inhibitor (“pan-RAR-inh.”). For the H1650 model in 13(b), n=7 for all groups.

RAR target gene STRA6 [2] = assay: STRA6 expression by qRT-PCR in H1650-Tr-BrM cells; format: cell-based, human; conditions: two days; for inhibition of retinol-induced STRA6 expression: 5 μM retinol and 5 μM antagonist
Protocol: as §1

H1975 = assay: Cell viability assay, sensitivity to pan-RAR inhibition, H1975; format: cell-based, human; conditions: H1975, lacks S100A9 and ALDH1A1 expression
Protocol: (§2) FIG. 13C: Cell viability assay for comparing in-vitro sensitivity of the indicated cell lines to pan-RAR-inhibition (AGN194310, abbreviated as “AGN”). Cell viability values are normalized to the vehicle (DMSO)-treated control, presented as the mean values±SEM, and representative of three independent experiments. P-values were determined by two-way ANOVA with Tukey's test.

HCC4006 = assay: Cell viability assay, sensitivity to pan-RAR inhibition, HCC4006; format: cell-based, human; conditions: HCC4006, lacks S100A9 and ALDH1A1 expression
Protocol: as §2

PC9-derivatives = assay: Lung orthotopic (intrathoracic) implantation, PC9-derivatives, AGN194310 treatment; format: in vivo, mice; conditions: PC9-derived, directly implanted in the lung, treated 2 weeks
H1650-derivatives = assay: Lung orthotopic (intrathoracic) implantation, H1650-derivatives, AGN194310 treatment; format: in vivo, mice; conditions: H1650-derived, directly implanted in the lung, treated 2 weeks
Protocol: FIG. 12K: Schematic representation of the experimental protocol for lung orthotopic injections. H1650-Tr-BrM-lung derivatives stably expressing either Lenti-Con, S100A9i, ALDH1A1i, or S100A9i plus ALDH1A1 o/e were injected in the lung (intrathoracic injections, labeled as “lung orthotopic injection” in the figure). Mice were euthanized at 21 days post tumor-cell injection for analysis.
FIG. 13P-FIG. 13Q: Violin plots depicting normalized photon flux of lung measured by bioluminescence imaging of mice. […] For panel (p): n=8 for Veh, and n=11 for Pan-RARi. For panel (q): n=7 for Veh, and n=8 for Pan-RARi.

PC9-Tr-BrM cells [3] = assay: Treatment of PC9-Tr-BrM brain metastasis in mice with AGN194310 and/or osimertinib; conditions: 0.5 mg/kg body weight/day, five days per week from day 25 to 7 weeks, vs vehicle and osimertinib alone
H1650-Tr-BrM cells [4] = assay: Treatment of H1650-Tr-BrM brain metastasis in mice with AGN194310 and/or osimertinib; conditions: 0.5 mg/kg body weight/day, five days per week from day 25 to 7 weeks, vs vehicle and osimertinib alone
PC9-Tr-BrM cells [5] = assay: PC9-Tr-BrM (osimertinib-refractory) brain metastasis mouse model, vehicle or osimertinib; format: in vivo, immunodeficient mice; conditions: PC9-Tr-BrM-injected mice, osimertinib vs vehicle
Protocol: FIG. 1E: Kaplan-Meier plot for brain-metastasis-progression-free survival of mice injected with PC9-Tr-BrM cells followed by treatment with either vehicle or osimertinib. Data were analyzed using the log-rank test: χ2=1.325, d.f.=1, p-value not significant (ns), n=20 for vehicle-treated mice and 17 for osimertinib-treated mice.
Mice were euthanized at 7 weeks post tumor-cell injection. Scale bars, 200 μm.
To understand the underlying mechanisms of brain relapse using this model, we isolated brain metastatic cells from the relapsed brain of osimertinib-treated mice and designated them PC9-Tr-BrM (Treated Brain Metastatic, FIG. 1d).

H1650-Tr-BrM cells [6] = assay: H1650-Tr-BrM brain metastasis mouse model, vehicle or osimertinib; format: in vivo, immunodeficient mice; conditions: H1650-Tr-BrM-injected mice
Protocol: . Data were analyzed using the log-rank test: χ2=2.541, d.f.=1, p-value not significant (ns), n=6 for vehicle-treated mice, and n=4 for osimertinib-treated mice.
. Arrow points to the location of metastatic cells in the brain. Mice were euthanized at 60 days post tumor-cell injection. Scale bars, 200 μm.
FIG. 8H: Quantitative analysis of the percentage of brain tissue sections covered by metastasis from the experiment described in panel (g). […]; We then isolated brain metastatic cells from the osimertinib-treated mice (designated H1650-Tr-BrM), injected them into the arterial circulation of naive immunodeficient mice and treated the mice with either vehicle or osimertinib.

phospho-EGFR (Tyr1068) [7] = assay: phospho-EGFR immunostaining of brain sections, PC9-BrM model; format: in vivo, immunodeficient mice; conditions: osimertinib 5 mg/kg/day vs vehicle
Text: FIG. 2B: Brain sections from mice injected with PC9-BrM cells described in FIG. 1a-b were immunostained using an antibody against phospho-EGFR (Tyr1068). […] The endpoint for vehicle-treated mice was two months post tumor-cell injection (“Vehicle”). The endpoint for osimertinib-treated mice was 4 months post tumor-cell injection for micrometastases (“Micromet”) and 8 months post tumor-cell injection for relapsed metastatic lesion (“Relapsed Met”). For the osimertinib treatment group, mice were administered osimertinib by oral gavage. At 6 hours post treatment, mice were euthanized, and brain tissues were subsequently processed for histological analysis. Representative images of immunohistochemical staining for phospho-EGFR in brain sections are shown. Arrows point to, and dotted line surrounds, the location of metastatic cells in the brain.
FIG. 2C: The pEGFR-immunostained brain sections described in panel (b) were quantitated using automated Qu-Path software to count pEGFR-positive cancer cells that were identified by setting a threshold for signal intensity (1+).

phospho-EGFR (Tyr1068) [8] = assay: phospho-EGFR immunostaining of brain sections, H1650-BrM model; format: in vivo, immunodeficient mice; conditions: osimertinib 5 mg/kg/day vs vehicle
Text: FIG. 9D: Brain sections from mice injected with H1650-BrM cells described in FIG. 8g-h were immunostained using an antibody against phospho-EGFR (Tyr1068). […] Mice were then euthanized, and brain tissues were subsequently processed for histological analysis. Representative images of immunohistochemical staining for phospho-EGFR in brain sections are shown. Dotted lines surround the location of metastatic cells in the brain. Scale bars, 100 μm.
FIG. 9E: The pEGFR-stained brain sections from the H1650-derived model described in panel (d) were quantitated using automated Qu-Path software to count pEGFR-positive cancer cells that were identified by setting a threshold for signal intensity (1+). Data are represented as mean values±SEM.

[9] = test system: phospho-EGFR (Tyr1068), phospho-ERK (Thr202/Tyr204); conditions: PC9-BrM and PC9-Tr-BrM, 6 hours post-treatment, similar in both
Text: Antibodies against phospho-EGFR (Tyr1068), phospho-ERK (Thr202/Tyr204), total-EGFR, total-ERK and □-actin (loading control) were used. Data are representative of three independent experiments.

[10] = test system: phospho-EGFR (Tyr1068), phospho-ERK; conditions: H1650-BrM and H1650-Tr-BrM, 6 hours post treatment, similar in both
Text: Antibodies against phospho-EGFR (Tyr1068), phospho-ERK, total-EGFR, total-ERK and β-actin (loading control) were used. Data are representative of three independent experiments.

EGFR-mutant lung cancer = conditions: cited from earlier work
[11] = serum-free media, 5 μM retinol alone vs DMSO

## CCc1ccc(C2=CC(C)(C)Sc3ccc(C#Cc4ccc(C(=O)O)cc4)cc32)cc1 [AGN-194310]
RAR target gene STRA6 [1]
  inhibition of retinol-induced STRA6 expression: dramatically reduced
RAR target gene STRA6 [2]
  inhibition of retinol-induced STRA6 expression: dramatically reduced
H1975
  loss of viability: did not show dose-dependent loss of viability
HCC4006
  loss of viability: did not show dose-dependent loss of viability
PC9-derivatives
  lung lesions (normalized photon flux): modestly reduced
H1650-derivatives
  lung lesions (normalized photon flux): modestly reduced
PC9-Tr-BrM cells [3]
  brain metastasis (bioluminescence imaging and CK7 metastasis surface area): striking reduction
H1650-Tr-BrM cells [4]
  brain metastasis (bioluminescence imaging and CK7 metastasis surface area): striking reduction

## CC1(C)CC=C(c2cnc3ccccc3c2)c2cc(C(=O)Nc3ccc(C(=O)O)cc3)ccc21 [BMS195614]
RAR target gene STRA6 [1]
  inhibition of retinol-induced STRA6 expression: only modestly inhibited
RAR target gene STRA6 [2]
  inhibition of retinol-induced STRA6 expression: only modestly inhibited

## CC1(C)CCC(C)(C)c2cc(C3(c4ccc5cc(C(=O)O)ccc5c4)SCCS3)ccc21 [MM11253]
RAR target gene STRA6 [1]
  inhibition of retinol-induced STRA6 expression: only modestly inhibited
RAR target gene STRA6 [2]
  inhibition of retinol-induced STRA6 expression: only modestly inhibited

## C=CC(=O)Nc1cc(Nc2nccc(-c3cn(C)c4ccccc34)n2)c(OC)cc1N(C)CCN(C)C [osimertinib]
PC9-Tr-BrM cells [5]
  brain-metastasis-progression-free survival: no longer increased
H1650-Tr-BrM cells [6]; osimertinib vs vehicle
  brain-metastasis-progression-free survival: no longer prolonged
H1650-Tr-BrM cells [6]; vehicle or osimertinib
  mice with rapid progression to the brain: 100%
phospho-EGFR (Tyr1068) [7]
  p-EGFR in micro- and relapsed-metastatic brain lesions: significantly reduced
phospho-EGFR (Tyr1068) [8]
  p-EGFR in brain metastatic lesions: significantly reduced
[9]
  inhibition of EGFR and ERK phosphorylation: dose-dependent inhibition
[10]
  inhibition of EGFR and ERK phosphorylation: dose-dependent inhibition
EGFR-mutant lung cancer; first-line treatment, EGFR-mutant metastatic lung cancer patients
  median progression-free survival (PFS): 18.9 months
EGFR-mutant lung cancer; lung cancer patients treated with osimertinib
  patients with CNS progression: 20%

## retinal
RAR target gene STRA6 [1]; [11]
  STRA6 expression: significantly induced
RAR target gene STRA6 [2]; [11]
  STRA6 expression: significantly induced
